Test results from patent US20110098177A1, “METHODS AND COMPOSITIONS OF PLANT MICRONUTRIENTS” (NOVUS INTERNATIONAL INC., priority 2006, published 2011).
Like-named read-outs stand apart in the source and are kept apart here.

Columns and labels:
Assay type in all cases: in vivo
Tygress tomato plants = conditions: for Toxicity (0-10): 0=no injury, 10=plant death
Summary of the method: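 Greenhouse 'Tygress' tomatoes in micronutrient-deficient medium received foliar micronutrient treatments at 6 weeks after transplanting, 200 mL/plant in deionized water with non-ionic surfactant. Foliar injury rated visually 0 (none) to 10 (plant death); randomized complete block, 6 replications, LSD at 5%.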

[1] = tested on: soybean plants (Asgrow 1102); assay: Soybean seed protein and oil content (Examples 11-12); conditions: in %
Experimental: The following experiments were performed on soybean plants growing in open-field plots during the summer and fall of 2008 at two production fields in West Central Minnesota. […] Trial design was a randomized complete block with 4 replications. Each plot measured 10' by 30' and consisted of five 22'' rows. Although all five rows of each plot were treated, only the center three rows (25' in length) of each plot were machine harvested. The two fields selected for these studies had historical Iron Deficiency Chlorosis (IDC) issues. The two field sites were planted by farmers with elite Roundup Ready commodity type soybean varieties with IDC tolerance (Asgrow 1102, Monsanto Corp.). […] BIOX-M was applied at a rate of 1.12 kg Mn/ha. […] All V4 treatments were applied in 10 gallons per acre of water with a backpack sprayer with a hand boom designed to “band” apply product directly to the plant row. Three nozzles with ConeJet TXVS-2 tips were oriented on either side and over the top of each row. This maximized the applied product to the plant tissue itself and minimized application of product to the soil surface. […] The V6 treatments (where applicable) were applied in 20 gallons per acre of water to increase the suspension of the BIOX products. Soybean seed was harvested after soybean maturity was reached (3 October at […], and 17 Oct. 2008 at Foxhome) and seed yields for each experimental treatment group were determined. In addition, seed samples from each treatment were dried to 13% moisture content, then analyzed for protein and oil content.

[2] = tested on: soybean plants (Asgrow 1102); assay: Visual greenness ratings (1-5 scale) of soybean plants, open-field (Examples 11-12); conditions: for Greenness of soybean plants compared to control, statement: Foxhome site, 29 July rating
Experimental: The following experiments were performed on soybean plants growing in open-field plots during the summer and fall of 2008 at two production fields in West Central Minnesota. […] Trial design was a randomized complete block with 4 replications. Each plot measured 10' by 30' and consisted of five 22'' rows. Although all five rows of each plot were treated, only the center three rows (25' in length) of each plot were machine harvested. The two fields selected for these studies had historical Iron Deficiency Chlorosis (IDC) issues. The two field sites were planted by farmers with elite Roundup Ready commodity type soybean varieties with IDC tolerance (Asgrow 1102, Monsanto Corp.). […] BIOX-M was applied at a rate of 1.12 kg Mn/ha. […] All V4 treatments were applied in 10 gallons per acre of water with a backpack sprayer with a hand boom designed to “band” apply product directly to the plant row. Three nozzles with ConeJet TXVS-2 tips were oriented on either side and over the top of each row. This maximized the applied product to the plant tissue itself and minimized application of product to the soil surface. […] The V6 treatments (where applicable) were applied in 20 gallons per acre of water to increase the suspension of the BIOX products.

[3] = tested on: soybean plants (Asgrow 1102); assay: ICP-MS micronutrient content of soybean trifoliates (Examples 11-12); set-up: Micronutrient content from ICP-MS analysis: Mn: unit not given here; conditions: for Micronutrient content from ICP-MS analysis: Fe: in ppm (unit assumed)
Experimental: The following experiments were performed on soybean plants growing in open-field plots during the summer and fall of 2008 at two production fields in West Central Minnesota. […] Trial design was a randomized complete block with 4 replications. Each plot measured 10' by 30' and consisted of five 22'' rows. Although all five rows of each plot were treated, only the center three rows (25' in length) of each plot were machine harvested. The two fields selected for these studies had historical Iron Deficiency Chlorosis (IDC) issues. The two field sites were planted by farmers with elite Roundup Ready commodity type soybean varieties with IDC tolerance (Asgrow 1102, Monsanto Corp.). […] BIOX-M was applied at a rate of 1.12 kg Mn/ha. […] All V4 treatments were applied in 10 gallons per acre of water with a backpack sprayer with a hand boom designed to “band” apply product directly to the plant row. Three nozzles with ConeJet TXVS-2 tips were oriented on either side and over the top of each row. This maximized the applied product to the plant tissue itself and minimized application of product to the soil surface. […] The V6 treatments (where applicable) were applied in 20 gallons per acre of water to increase the suspension of the BIOX products. […] The harvested plants were dried, ground, and subjected to Inductively Coupled Plasma-Mass Spectrometry (ICP-MS) analysis to determine plant micronutrient content.

Fe-HMTBA [BIOX-Fe]
Toxicity (0-10) (Tygress tomato plants; Fe 0.28 lb/acre): 0 | Toxicity (0-10) (Tygress tomato plants; Fe 0.57 lb/acre): 0 | Toxicity (0-10) (Tygress tomato plants; Fe 1.12 lb/acre): 1 | Toxicity (0-10) (Tygress tomato plants; Fe 1.74 lb/acre): 1 | Toxicity (0-10) (Tygress tomato plants; Fe 2.3 lb/acre): 2 | Toxicity relative to the non-treated control, statement (Tygress tomato plants; all levels of BIOX-Fe, Fe-sulfate at 2.0 lb/acre, BIOX-EDF at 0.3 lb/acre): no increased toxicity relative to the non-treated control | Oil content (13% moisture) ([1]; 0.558 kg/ha, V4, V6, Foxhome): 18.42 | Protein content (13% moisture) ([1]; 0.558 kg/ha, V4, V6, Foxhome): 32.73 | Oil content (13% moisture) ([1]; 0.558 kg/ha, V4, V6, Renville): 20.16 | Protein content (13% moisture) ([1]; 0.558 kg/ha, V4, V6, Renville): 32.04 | Oil content (13% moisture) ([1]; 0.558 kg/ha, V4, Foxhome): 18.46 | Protein content (13% moisture) ([1]; 0.558 kg/ha, V4, Foxhome): 32.60 | Oil content (13% moisture) ([1]; 0.558 kg/ha, V4, Renville): 20.12 | Protein content (13% moisture) ([1]; 0.558 kg/ha, V4, Renville): 31.93 | Oil content (13% moisture) ([1]; 1.12 kg/ha, V4, V6, Foxhome): 18.40 | Protein content (13% moisture) ([1]; 1.12 kg/ha, V4, V6, Foxhome): 32.68 | Oil content (13% moisture) ([1]; 1.12 kg/ha, V4, V6, Renville): 20.10 | Protein content (13% moisture) ([1]; 1.12 kg/ha, V4, V6, Renville): 32.36 | Oil content (13% moisture) ([1]; 1.12 kg/ha, V4, Foxhome): 18.48 | Protein content (13% moisture) ([1]; 1.12 kg/ha, V4, Foxhome): 32.47 | Oil content (13% moisture) ([1]; 1.12 kg/ha, V4, Renville): 20.28 | Protein content (13% moisture) ([1]; 1.12 kg/ha, V4, Renville): 32.23 | Mean visual greenness scores (1-5) ([2]; 0.558 kg/ha, V4, V6, Jul. 15, 2008 Rating, Foxhome): 2.4 | Mean visual greenness scores (1-5) ([2]; 0.558 kg/ha, V4, V6, Jul. 15, 2008 Rating, Renville): 2.4 | Mean visual greenness scores (1-5) ([2]; 0.558 kg/ha, V4, V6, Jul. 29, 2008 Rating, Foxhome): 1.0 C | Mean visual greenness scores (1-5) ([2]; 0.558 kg/ha, V4, V6, Jul. 29, 2008 Rating, Renville): 1.1 | Mean visual greenness scores (1-5) ([2]; 0.558 kg/ha, V4, Jul. 15, 2008 Rating, Foxhome): 2.8 | Mean visual greenness scores (1-5) ([2]; 0.558 kg/ha, V4, Jul. 15, 2008 Rating, Renville): 2.6 | Mean visual greenness scores (1-5) ([2]; 0.558 kg/ha, V4, Jul. 29, 2008 Rating, Foxhome): 1.4 B, C | Mean visual greenness scores (1-5) ([2]; 0.558 kg/ha, V4, Jul. 29, 2008 Rating, Renville): 1.1 | Mean visual greenness scores (1-5) ([2]; 1.12 kg/ha, V4, V6, Jul. 15, 2008 Rating, Foxhome): 2.6 | Mean visual greenness scores (1-5) ([2]; 1.12 kg/ha, V4, V6, Jul. 15, 2008 Rating, Renville): 2.6 | Mean visual greenness scores (1-5) ([2]; 1.12 kg/ha, V4, V6, Jul. 29, 2008 Rating, Foxhome): 1.5 A, B, C | Mean visual greenness scores (1-5) ([2]; 1.12 kg/ha, V4, V6, Jul. 29, 2008 Rating, Renville): 1.4 | Mean visual greenness scores (1-5) ([2]; 1.12 kg/ha, V4, Jul. 15, 2008 Rating, Foxhome): 2.5 | Mean visual greenness scores (1-5) ([2]; 1.12 kg/ha, V4, Jul. 15, 2008 Rating, Renville): 2.1 | Mean visual greenness scores (1-5) ([2]; 1.12 kg/ha, V4, Jul. 29, 2008 Rating, Foxhome): 1.0 C | Mean visual greenness scores (1-5) ([2]; 1.12 kg/ha, V4, Jul. 29, 2008 Rating, Renville): 1.0 | Greenness of soybean plants compared to control, statement ([2]; higher rate (269 g Fe/ha) at V4 only): significantly increased the greenness in treated plants | Greenness of soybean plants compared to control, statement ([2]; higher rate (269 g Fe/ha) at both V4 and V6): no change in greenness compared to control | Toxic effects on soybean plants (in words) ([2]; iron concentrations 0.094% - 0.376% by weight): without toxic effects | Greenness of soybean plants compared to control, statement ([2]; lower rate (134 g Fe/ha) at V4): had no effect on greenness | Greenness of soybean plants compared to control, statement ([2]; lower rate (134 g Fe/ha) at both V4 and V6): significantly increased the greenness of the soybean plants | Micronutrient content from ICP-MS analysis: Mn ([3]; 0.558 kg/ha, V4, V6, Foxhome): 76.21 | Micronutrient content from ICP-MS analysis: Fe ([3]; 0.558 kg/ha, V4, V6, Foxhome): 88.30 | Micronutrient content from ICP-MS analysis: Mn ([3]; 0.558 kg/ha, V4, V6, Renville): 96.44 | Micronutrient content from ICP-MS analysis: Fe ([3]; 0.558 kg/ha, V4, V6, Renville): 96.26 | Micronutrient content from ICP-MS analysis: Mn ([3]; 0.558 kg/ha, V4, Foxhome): 81.82 | Micronutrient content from ICP-MS analysis: Fe ([3]; 0.558 kg/ha, V4, Foxhome): 83.38 | Micronutrient content from ICP-MS analysis: Mn ([3]; 0.558 kg/ha, V4, Renville): 88.29 | Micronutrient content from ICP-MS analysis: Fe ([3]; 0.558 kg/ha, V4, Renville): 98.39 | Micronutrient content from ICP-MS analysis: Mn ([3]; 1.12 kg/ha, V4, V6, Foxhome): 87.67 | Micronutrient content from ICP-MS analysis: Fe ([3]; 1.12 kg/ha, V4, V6, Foxhome): 83.35 | Micronutrient content from ICP-MS analysis: Mn ([3]; 1.12 kg/ha, V4, V6, Renville): 89.00 | Micronutrient content from ICP-MS analysis: Fe ([3]; 1.12 kg/ha, V4, V6, Renville): 98.74 | Micronutrient content from ICP-MS analysis: Mn ([3]; 1.12 kg/ha, V4, Foxhome): 72.70 | Micronutrient content from ICP-MS analysis: Fe ([3]; 1.12 kg/ha, V4, Foxhome): 84.93 | Micronutrient content from ICP-MS analysis: Mn ([3]; 1.12 kg/ha, V4, Renville): 76.15 | Micronutrient content from ICP-MS analysis: Fe ([3]; 1.12 kg/ha, V4, Renville): 97.42
